Activity calls are given as the source filed them. No rule for the calls is given here.
target: Ubiquitin-conjugating enzyme E2 N (Homo sapiens) (UniProt P61088); assay: UBE2N binders by NMR, biophysical, purified protein (AID 1552); details: NMR binding to purified UBE2N
Sequence (P61088 whole entry, looked up): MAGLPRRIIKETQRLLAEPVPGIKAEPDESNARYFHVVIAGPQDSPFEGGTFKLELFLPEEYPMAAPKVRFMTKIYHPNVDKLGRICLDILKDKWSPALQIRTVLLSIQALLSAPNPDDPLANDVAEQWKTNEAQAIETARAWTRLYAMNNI

| SMILES | Kd |
| --- | --- |
| N=C1/C(=C\c2ccccc2)C(=O)N=C2SC=NN12 | > 4 mM (inactive) |
| O=C(Cc1cccs1)Nc1ccon1 | > 4 mM (inactive) |
| Cc1ccc(SCCN2C(=O)NC(C)(C)C2=O)cc1 | > 4 mM (inactive) |
| O=c1[nH]c(=S)c2c(n1-c1ccccc1)CCC2 | > 4 mM (inactive) |
| CNC(=O)c1ccc([N+](=O)[O-])cc1Cl | > 4 mM (inactive) |
| Cc1noc(C)c1C(=O)N1CCc2ccccc21 | > 4 mM (inactive) |
| CC1(C)NC(=O)N(CN2CCOCC2)C1=O | > 4 mM (inactive) |
| Nc1nnc(SCc2cccnc2)s1 | > 4 mM (inactive) |
| S=c1[nH]nc(-c2cccnc2)n1Cc1ccccc1 | > 4 mM (inactive) |
| O=C(CNC(=O)c1ccc(F)cc1)NC1=NCCS1 | > 4 mM (inactive) |
| COC(=O)c1ccc(N2CCCC2)nc1 | > 4 mM (inactive) |
| Nc1ncccc1OCc1ccccc1 | > 4 mM (inactive) |
| COc1ccccc1Nc1nncc(=O)[nH]1 | > 4 mM (inactive) |
| CN1CCC(NC(=O)c2cccnc2)CC1 | > 4 mM (inactive) |
| NCc1ccc(-n2cccn2)cc1 | > 4 mM (inactive) |
| O=c1c(O)cc([C@H]2Oc3cc(O)cc(O)c3C[C@H]2O)cc2c([C@H]3Oc4cc(O)cc(O)c4C[C@H]3O)cc(O)c(O)c12 | > 4 mM (inactive) |
| Cc1nc2ccccc2c(=O)n1CCCO | > 4 mM (inactive) |
| O=C(O)c1ncoc1-c1ccccc1 | > 4 mM (inactive) |
| Nc1cccc(C(=O)c2ccccc2)c1 | > 4 mM (inactive) |
| Cc1c(C(=O)NC2=NCCS2)oc2ccccc12 | > 4 mM (inactive) |
| CC1(C)CC2(CCO1)NCCN1C(=O)CSC12 (centres undefined) | > 4 mM (inactive) |
| O=S(=O)(Cc1ccc(Cl)cc1)N1CCCC1 | > 4 mM (inactive) |
| O[C@H]1C=C2CCN3Cc4cc5c(cc4C(C23)[C@@H]1O)OCO5 (some centres undefined) | > 4 mM (inactive) |
| Nc1ccc2c(c1)CCCC2=O | > 4 mM (inactive) |

| SMILES | Kd |
| --- | --- |
| Nc1ccc(O)cn1 | > 4 mM (inactive) |
| CC1=NCCc2c1[nH]c1cc(O)ccc21 | > 4 mM (inactive) |
| CCCS(=O)(=O)N1CCN(c2ccccc2F)CC1 | > 4 mM (inactive) |
| CN(C)CC(O)C1CCOC(C)(C)C1 (centres undefined) | > 4 mM (inactive) |
| CSc1ccc(/C=N/n2c(C)nnc2C)cc1 | > 4 mM (inactive) |
| COC1C=CC23c4cc5c(cc4CN(CC2O)[C@@H]3C1)OCO5 (some centres undefined) | > 4 mM (inactive) |
| O=C(Nc1ccccc1)C(=O)NC1CC1 | > 4 mM (inactive) |
| CCOCC(=O)N1CCc2ccccc21 | > 4 mM (inactive) |
| Nc1nonc1-c1nc2ccccc2[nH]1 | > 4 mM (inactive) |
| COc1c(O)cc2c(-c3ccccc3)cc(=O)oc2c1OC | > 4 mM (inactive) |
| CC1(C)CC2C1CC[C@]1(C)CCC3C(C(=O)O)CC(=O)O[C@@]32C1 (some centres undefined) | > 4 mM (inactive) |
| Cn1ccc(NC(=S)Nc2cccc([N+](=O)[O-])c2)n1 | > 4 mM (inactive) |
| COc1cc2occc2c2oc(=O)ccc12 | > 4 mM (inactive) |
| O=C(Nc1ccccc1)NC1CCS(=O)(=O)C1 (centres undefined) | > 4 mM (inactive) |
| CC(=O)Nc1ccc(NC(=O)/C=C\C(=O)O)cc1 | > 4 mM (inactive) |
| Cc1cc(NC(=O)c2ccc3c(c2)OCO3)no1 | > 4 mM (inactive) |
| CC(C)=CC(=O)Nc1ccc2c(c1)OCO2 | > 4 mM (inactive) |
| NC(=O)C1CCN(C2CC(=O)NC2=O)CC1 (centres undefined) | > 4 mM (inactive) |
| CCOC(=O)c1ccc(F)c(F)c1 | > 4 mM (inactive) |
| O=c1[nH]cnc2nc[nH]c12 | > 4 mM (inactive) |
| CCn1nccc1C(=O)Nc1ccc(Cl)cc1Cl | > 4 mM (inactive) |
| Cc1nnc(SCC(=O)Nc2ccccc2)[nH]c1=O | > 4 mM (inactive) |
| COC(=O)C[C@H]1C(C)(C)C(OC(C)=O)[C@]2(O)C=C3C(CC[C@]4(C)C3CC(=O)O[C@H]4c3ccoc3)C1(C)C2=O (some centres undefined) | > 4 mM (inactive) |
| O=C1CS/C(=N/N=C2CCCC2)N1 | > 4 mM (inactive) |

| SMILES | Kd |
| --- | --- |
| NC(=O)Cc1nc(-c2ccccc2)cs1 | > 4 mM (inactive) |
| O=C1Nc2ccccc2C12OCCO2 | > 4 mM (inactive) |
| S=C=NCc1ccccc1 | > 4 mM (inactive) |
| Cc1nc2nc(COc3ccccc3)nn2c(C)c1Cl | > 4 mM (inactive) |
| O=C(O)CN1CCN(C2CCCC2)CC1 | > 4 mM (inactive) |
| COc1ccc2c(c1)[n+](=O)c(C(C)=O)c(C)n2[O-] | > 4 mM (inactive) |
| c1ccc(SCc2nc(-c3ccncc3)no2)cc1 | > 4 mM (inactive) |
| c1ccc(Cc2nn3c(-c4ccncc4)nnc3s2)cc1 | > 4 mM (inactive) |
| O=C1COc2ccc(C(=O)c3ccccc3)cc2CN1 | > 4 mM (inactive) |
| Nc1ccc(CN2CCS(=O)(=O)CC2)cc1 | > 4 mM (inactive) |
| c1coc(CNc2ncnc3nc[nH]c23)c1 | > 4 mM (inactive) |
| CC(=O)Nc1cc(C(N)=O)cc(C(N)=O)c1 | > 4 mM (inactive) |
| COc1cc2c(cc1OC)[C@@H]1C(=O)c3ccc4c(c3O[C@@H]1CO2)CC(C(C)C)O4 (some centres undefined) | > 4 mM (inactive) |
| CC(NC(=O)C1CCCCC1)C(=O)NC1=NCCS1 (centres undefined) | > 4 mM (inactive) |
| Cc1cc(NC(=O)c2cccc(S(C)(=O)=O)c2)no1 | > 4 mM (inactive) |
| O=C(NCc1ccccc1Cl)c1cnn2cccnc12 | > 4 mM (inactive) |
| O=C(O)CCc1c[nH]c2ccccc12 | > 4 mM (inactive) |
| CC(=O)c1ccc[nH]1 | > 4 mM (inactive) |
| O=C(NC(=S)NN1CCOCC1)c1cccs1 | > 4 mM (inactive) |
| Cc1nc2[nH]onc2c2nccc(=O)c12 | > 4 mM (inactive) |
| Nc1ccc(-n2cccn2)cc1 | > 4 mM (inactive) |
| O=[N+]([O-])c1cccc(-c2c[n+](=O)c3c(n2[O-])CCC3)c1 | > 4 mM (inactive) |
| CCC(=O)Nc1cc(C(C)C)c(O)cc1C | > 4 mM (inactive) |
| Cc1cc(N)n(-c2ccccc2)n1 | > 4 mM (inactive) |

| SMILES | Kd |
| --- | --- |
| CNS(=O)(=O)c1ccc2[nH]c(=O)[nH]c2c1 | > 4 mM (inactive) |
| NS(=O)(=O)c1ccccc1Cl | > 4 mM (inactive) |
| Cc1ccc(SCc2cc(=O)n3[nH]c(C)nc3n2)cc1 | > 4 mM (inactive) |
| CCN1CCC(NC2CCCCNC2=O)CC1 (centres undefined) | > 4 mM (inactive) |
| c1ccc(CN2CCC3(CC2)Nc2ccccc2CO3)cc1 | > 4 mM (inactive) |
| Cc1ccc(S(=O)(=O)CCc2ccccn2)cc1 | > 4 mM (inactive) |
| O=c1c(-c2ccccc2)coc2cc(O)cc(O)c12 | > 4 mM (inactive) |
| CCNC(=O)CC[C@H](N)C(=O)O | > 4 mM (inactive) |
| Cc1[nH]c2ccccc2c1C=Nn1cncn1 | > 4 mM (inactive) |
| CC(C)[C@@H]1CC[C@@H](C)C[C@H]1OC(=O)c1ccccc1 | > 4 mM (inactive) |
| Cc1cc(C)n(C/C=C/Cn2nc(C)cc2C)n1 | > 4 mM (inactive) |
| COc1ccc(-c2ccc(=O)n(CC(N)=O)n2)cc1 | > 4 mM (inactive) |
| OCc1ccc(-n2cccn2)cc1 | > 4 mM (inactive) |
| O=c1[nH]c(N2CCOCC2)nc2ccccc12 | > 4 mM (inactive) |
| C=C1C2CC[C@H]3[C@]4(C)C[C@H](OC5OC(CO)C(OS(=O)(=O)O)C(OS(=O)(=O)O)C5OC(=O)CC(C)C)C[C@@H](C(=O)O)[C@H]4CC[C@]3(C2)[C@H]1O (some centres undefined) | > 4 mM (inactive) |
| Cc1cc(=O)[nH]c(N2CCCCC2)n1 | > 4 mM (inactive) |
| Nc1ccc(CCC(=O)O)cc1 | > 4 mM (inactive) |
| O=C1CC2OCC=C3CN4CC[C@]56c7ccccc7N1C5[C@H]2[C@H]3CC46 (some centres undefined) | > 4 mM (inactive) |
| COC(=O)CC1SC(=O)NC1=O (centres undefined) | > 4 mM (inactive) |
| Cc1occc1C(=O)NCc1ccccn1 | > 4 mM (inactive) |
| COc1cc(OC)c2c(=O)c(O)c(-c3ccc(OC)c(OC)c3)oc2c1 | > 4 mM (inactive) |
| OCCCc1nc2ccc(C(F)(F)F)cc2[nH]1 | > 4 mM (inactive) |
| Cc1cc(O)cc(O)c1C(=O)O | > 4 mM (inactive) |
| COc1cc2c(cc1OC)-c1nnnn1C(C)(C)C2 | > 4 mM (inactive) |

| SMILES | Kd |
| --- | --- |
| Cc1ccc(NC(=O)c2ccccc2)s1 | > 4 mM (inactive) |
| NC1=NC(=O)/C(=C/c2ccccc2[N+](=O)[O-])S1 | > 4 mM (inactive) |
| CN(C)S(=O)(=O)N1CCc2ccccc21 | > 4 mM (inactive) |
| COc1cc(OC)c2c(=O)c(-c3ccc4c(c3)OCO4)coc2c1 | > 4 mM (inactive) |
| COc1cccc(-c2nc(-c3ccccn3)no2)c1OC | > 4 mM (inactive) |
| Nc1ccc(Cc2ccc(N)cc2)cc1 | > 4 mM (inactive) |
| O=C1C2C3C=CC(C3)C2C(=O)N1c1nccs1 (centres undefined) | > 4 mM (inactive) |
| OC/C=C/c1ccc(O)c(O)c1 | > 4 mM (inactive) |
| O=C(O)CN(CCCc1ccccc1)CC(=O)O | > 4 mM (inactive) |
| COc1cc(-c2csc(C)n2)ccc1O | > 4 mM (inactive) |
| Cc1cc(C)nc(/N=C(/N)N2CCOCC2)n1 | > 4 mM (inactive) |
| OCc1ccc(N2CCOCC2)cc1 | > 4 mM (inactive) |
| O=C(O)c1cn(-c2ccccc2)nc1-c1cccnc1 | > 4 mM (inactive) |
| NC(=O)c1ccsc1NC(=O)c1ccccc1[N+](=O)[O-] | > 4 mM (inactive) |
| O=C(O)c1ccc(-n2ccnc2)cc1 | > 4 mM (inactive) |
| O=C(Nc1cccnc1)c1cnn2cccnc12 | > 4 mM (inactive) |
| CCNS(=O)(=O)c1cc(Br)ccc1OC | > 4 mM (inactive) |
| CCOC(=O)N1CCN(c2ncnc3c2cnn3C)CC1 | > 4 mM (inactive) |
| COc1cc(C(=O)NCC2CCCO2)cc(OC)c1OC (centres undefined) | > 4 mM (inactive) |
| O=C(O)c1ccc(-n2cccn2)cc1 | > 4 mM (inactive) |
| COc1ccc(-c2oc3c(CC=C(C)C)c(O[C@@H]4O[C@H](CO)[C@@H](O)[C@H](O)[C@H]4O)cc(O)c3c(=O)c2O[C@@H]2O[C@@H](C)[C@H](O)[C@@H](O)[C@H]2O)cc1 | > 4 mM (inactive) |
| CC(C)NC(=S)N1CCN(S(C)(=O)=O)CC1 | > 4 mM (inactive) |
| CCCc1cc2c(c(NC(C)=O)n1)c(=O)oc1ccccc12 | > 4 mM (inactive) |

Reference: PubChem BioAssay AID1552 (Sanford-Burnham Center for Chemical Genomics, 2009)
